Source: patent US9084782B2, “Chemical inhibitors of cholesterol biosynthesis and venous angiogenesis” (The Regents of the University of California, priority 2011, dated 2015)
“Also recorded” adds a separate entry of the source.

Test system: mCherry-RhoCLVL
Assay: Localization of chimeric protein mCherry-RhoCLVL (geranylgeranylation)
Format: in vivo, zebrafish
Details: 10 μM aplexone, 80% epiboly
Method: mCherry-RhoCLVL was generated by PCR amplification of mCherry from pmCherry-N3 (a generous gift from S. Walsh) using primers containing sequences coding for the C-terminal 20 amino acid residues of human RhoA. mCherry-RasCVLS was amplified from pME-mCherryCAAX (a generous gift from C.-B. Chien). The PCR products were sub-cloned into pcGlobin2 (Ro et al., 2004) and mRNA was synthesized using the mMESSAGE mMACHINE kit (Ambion). Zebrafish embryos were injected with 250 pg of mCherry-RhoCLVL and mCherry-RasCVLS mRNA at 1-cell stage, and raised with or without the presence of 10 μM aplexone at 25° C. and fixed at 80% epiboly. Cellular localizations of the mCherry chimeras were analyzed with confocal microscopy.

CC(=O)C1=CCC(c2ccccc2)N(S(=O)(=O)c2ccc(C)cc2)C1 (stereo not shown) [aplexone]
subcellular localization of mCherry-rhoCAAX (CLVL) chimeric protein: no longer localized predominantly to the membrane; also recorded: mis-localized to the nucleus and cytoplasm
